Experimental data taken from patent publication US12428415B2, “Matriptase 2 inhibitors and uses thereof” (Disc Medicine, Inc., priority 2018, dated 2025).

The compounds below were run against T1, Human Recombinant Matriptase 2 (Homo sapiens, UniProt Q8IU80) (assay: Matriptase 2 fluorescence based inhibition assay, Method A (100 mM TRIS pH 9, 1 mg/mL BSA)). Settings: 1 uM; Assay Used A; read-out: Mar-2 % inhibition at 1 uM.
T1 construct: purchased Enzo Life Sciences (an in-house preparation was also used) ALX-201-752-1
T1 sequence (Q8IU80 1-811): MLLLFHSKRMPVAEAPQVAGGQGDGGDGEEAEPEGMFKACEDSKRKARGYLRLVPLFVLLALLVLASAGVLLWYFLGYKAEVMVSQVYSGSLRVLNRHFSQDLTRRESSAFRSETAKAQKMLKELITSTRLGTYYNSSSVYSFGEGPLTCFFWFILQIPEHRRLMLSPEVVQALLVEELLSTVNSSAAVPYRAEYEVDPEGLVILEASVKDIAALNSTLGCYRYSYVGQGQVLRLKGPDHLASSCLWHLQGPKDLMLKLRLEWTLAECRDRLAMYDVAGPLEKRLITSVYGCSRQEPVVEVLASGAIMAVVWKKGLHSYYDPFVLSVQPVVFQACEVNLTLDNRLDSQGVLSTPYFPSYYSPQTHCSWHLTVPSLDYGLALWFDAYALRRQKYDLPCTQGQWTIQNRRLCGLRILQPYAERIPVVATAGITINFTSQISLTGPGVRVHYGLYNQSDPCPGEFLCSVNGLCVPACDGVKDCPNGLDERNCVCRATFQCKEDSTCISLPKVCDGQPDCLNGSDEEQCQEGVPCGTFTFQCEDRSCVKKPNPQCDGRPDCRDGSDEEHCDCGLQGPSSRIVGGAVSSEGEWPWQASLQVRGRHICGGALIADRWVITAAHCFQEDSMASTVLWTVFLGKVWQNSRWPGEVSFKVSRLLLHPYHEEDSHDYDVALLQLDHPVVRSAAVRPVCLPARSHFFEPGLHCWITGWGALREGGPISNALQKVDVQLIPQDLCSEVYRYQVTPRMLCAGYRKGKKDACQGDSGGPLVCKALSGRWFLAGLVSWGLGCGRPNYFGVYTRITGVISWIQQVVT
Type: biochemical
Description: Test compounds were evaluated for their potential to inhibit Human Recombinant Matriptase 2 (in-house and commercial protein from Enzo Life Sciences—cat log -ALX-201-752-1) using fluorescence based assay. The concentration of Recombinant Matriptase 2 and the substrate used in the assay was: 7 nM (commercial) and 15 nM (Inhouse Matriptase 2) and 100 μM (Boc-Gln-Ala-Arg-7-amido-4-methyl coumarin hydrobromide—Cat log: B4153-Sigma) respectively. The assay buffer used was 100 mM TRIS pH 9, 1 mg/mL BSA. The assay was performed using 384 well black flat bottom plate from grenier (Cat log: 781076) at 25° C. The enzyme and compound was preincubated for 30 mins, plate was read 60 mins after substrate addition at wavelength Ex: 360/Em: 480 nm. The final assay volume was 20 μl. Stock solution of compounds were initially prepared in DMSO and appropriate dilutions were made for screening and IC50 determination (final DMSO conc in the assay was 1%). All the measurements were carried out using the Spectramax M5, Molecular devices. The compounds were screened at 1 and 10 μM concentration and IC50 was determined for the interested compounds.
To determine IC50 values, dose response curves were generated by plotting percentage inhibition as a function of inhibitor concentration and the data was fitted to sigmoidal non-linear regression equation (variable slope) using Graph Pad prism software V7.
With `N=C(N)c1ccc2cc(C(=O)Nc3cccc(-n4cc(C(F)(F)F)cn4)c3)n(Cc3ccc(C(N)=O)cc3)c2c1` [Compound I-165] the inhibition at 1 µM was 0 to 25%.
`N=C(NC(=O)Oc1ccccc1)c1ccc2cc(C(=O)Nc3cccc(N4CCCC4)c3)n(Cc3ccc(C(N)=O)cc3)c2c1` [Compound I-148] was tested, and the inhibition at 1 µM was 0 to 25%.
Compound `Cc1ccc(NC(=O)c2cc3ccc(C(=N)N)cc3n2Cc2ccc(C(N)=O)cc2)cc1O` [Compound I-71] has an inhibition at 1 µM of 0 to 25%.
`N=C(N)c1ccc2cc(C(=O)Nc3cccc(N4CCSCC4)c3)n(Cc3ccc(C(N)=O)cc3)c2c1` [Compound I-133] gave an inhibition at 1 µM of 0 to 25%.
Compound `CCOC(=O)NC(=N)c1ccc2cc(C(=O)Nc3cccc(N4CCCC4)c3)n(Cc3ccc(C(N)=O)cc3)c2c1` [Compound I-120] has an inhibition at 1 µM of 0 to 25%.
Work on `N=C(N)c1ccc2cc(C(=O)Nc3ccc(F)nc3)n(Cc3ccc(C(N)=O)cc3)c2c1` [Compound I-173] yielded an inhibition at 1 µM of 0 to 25%.
`N=C(N)c1ccc2cc(C(=O)Nc3ccc(Cl)nc3)n(Cc3ccc(C(N)=O)cc3)c2c1` [Compound I-174] was tested, and the inhibition at 1 µM was 0 to 25%.
With `N=C(N)c1ccc2cc(C(=O)Nc3cc(N4CCCC4)ccc3F)n(Cc3ccc(C(N)=O)cc3)c2c1` [Compound I-152] the inhibition at 1 µM was 0 to 25%.
In the case of `N=C(N)c1ccc2cc(C(=O)NCc3cccc(CN)c3)n(CCc3ccccc3)c2c1` [Compound I-24], the inhibition at 1 µM is reported as 0 to 25%.
In the case of `N=C(N)c1ccc2cc(C(=O)NC3CCN(C(=O)CCN)CC3)n(Cc3ccc(C(F)(F)F)cc3)c2c1` [Compound I-8, N-(1-(3-aminopropanoyl)piperidin-4-yl)-6-carbamimidoyl-1-(4-(trifluoromethyl)benzyl)-1H-indole-2-carboxamide], the inhibition at 1 µM is reported as 25 to 50%.
For `N=C(N)c1ccc2cc(C(=O)Nc3ccc(N4CCC(F)(F)C4)cc3)n(Cc3ccc(C(N)=O)cc3)c2c1` [Compound I-97], the inhibition at 1 µM was 25 to 50%.
Compound `COc1cccc(NC(=O)c2cc3ccc(C(=N)N)cc3n2Cc2ccc(C(N)=O)cc2)c1` [Compound I-67] has an inhibition at 1 µM of 0 to 25%.
Work on `N=C(N)c1ccc2cc(C(=O)Nc3cccc4cnccc34)n(Cc3ccc(C(N)=O)cc3)c2c1` [Compound I-73] yielded an inhibition at 1 µM of 25 to 50%.
With `Cc1cncc(NC(=O)c2cc3ccc(C(=N)N)cc3n2Cc2ccc(C(N)=O)cc2)c1` [Compound I-175] the inhibition at 1 µM was 25 to 50%.
Compound `N=C(N)c1ccc2cc(C(=O)Nc3ccc(N4CCCC4)cc3)n(CCS(=O)(=O)c3ccccc3)c2c1` [Compound I-44] has an inhibition at 1 µM of 0 to 25%.
For `C[C@H](NC(=O)c1cc2ccc(C(=N)N)cc2n1Cc1ccc(C(N)=O)cc1)c1ccccc1` [Compound I-72], the inhibition at 1 µM was 0 to 25%.
`N=C(N)c1ccc2cc(C(=O)NCc3cc(F)cc(F)c3)n(Cc3ccc(C(N)=O)cc3)c2c1` [Compound I-80] showed an inhibition at 1 µM of 0 to 25%.
For `N=C(N)c1ccc2cc(C(=O)NC[C@H]3CCCNC3)n(CCS(=O)(=O)c3ccccc3)c2c1` [Compound I-51], the inhibition at 1 µM was 25 to 50%.
Compound `N=C(N)c1ccc2cc(C(=O)Nc3cccc(-n4cccc4)c3)n(Cc3ccc(C(N)=O)cc3)c2c1` [Compound I-154] has an inhibition at 1 µM of 0 to 25%.
`N=C(N)c1ccc2cc(C(=O)NCCc3ccccc3)n(Cc3ccc(C(N)=O)cc3)c2c1` [Compound I-81] was tested, and the inhibition at 1 µM was 0 to 25%.
In the case of `N=C(N)c1ccc2cc(C(=O)Nc3cccnc3)n(Cc3ccc(C(N)=O)cc3)c2c1` [Compound I-170], the inhibition at 1 µM is reported as 0 to 25%.
With `Cc1ccc(NC(=O)c2cc3ccc(C(=N)N)cc3n2Cc2ccc(C(N)=O)cc2)nc1` [Compound I-171] the inhibition at 1 µM was 0 to 25%.
In the case of `N=C(N)c1ccc2cc(C(=O)Nc3ccc(N4CCCCC4)cc3)n(Cc3ccc(C(N)=O)cc3)c2c1` [Compound I-102], the inhibition at 1 µM is reported as 0 to 25%.
With `N=C(N)c1ccc2cc(C(=O)NCc3cccc(C(F)(F)F)c3)n(Cc3ccc(C(N)=O)cc3)c2c1` [Compound I-83] the inhibition at 1 µM was 0 to 25%.
In the case of `N=C(N)c1ccc2cc(C(=O)NC3CCNCC3)n(Cc3ccc(C(F)(F)F)cc3)c2c1` [Compound I-5], the inhibition at 1 µM is reported as 25 to 50%.

Same assay, conditions: at 1 uM; Assay Used = A; read-out: Mar-2 % inhibition at 1 uM
For `N=C(N)c1ccc2cc(C(=O)N3CCC(F)(F)C3)n(CCS(=O)(=O)c3ccccc3)c2c1` [Compound I-342], the inhibition at 1 µM was 0 to 25%.
For `CC[C@@H](CO)NC(=O)c1cc2ccc(C(=N)N)cc2n1Cc1ccc(C(N)=O)cc1` [Compound I-209], the inhibition at 1 µM was 0 to 25%.
`N=C(N)c1ccc2cc(C(=O)N3CCC(CCN)CC3)n(CCS(=O)(=O)c3ccccc3)c2c1` [Compound I-337] showed an inhibition at 1 µM of 0 to 25%.
`N=C(N)c1ccc2cc(C(=O)N3CCC(C(=O)NCCCN)CC3)n(Cc3ccc(C(F)(F)F)cc3)c2c1` [Compound I-356, N-(3-Aminopropyl)-1-(6-carbamimidoyl-1-(4-(trifluoromethyl)benzyl)-1H-indole-2-carbonyl)-piperidine-4-carboxamide] showed an inhibition at 1 µM of 0 to 25%.
In the case of `NCCC1CCN(C(=O)c2cc3ccc(/C(N)=N\O)cc3n2Cc2ccc(-c3ccccc3)cc2)CC1` [Compound I-380], the inhibition at 1 µM is reported as 0 to 25%.
Work on `NCCCC(=O)Nc1cccc(Cn2c(C(=O)N3CCC(CCN)CC3)cc3ccc(/C(N)=N/O)cc32)c1` [Compound I-382] yielded an inhibition at 1 µM of 0 to 25%.
`N=C(N)c1ccc2cc(C(=O)N3CCC(F)CC3)n(Cc3cccc(NC(=O)CCN)c3)c2c1` [Compound I-366] was tested, and the inhibition at 1 µM was 0 to 25%.
`CCNC(=O)c1ccc(Cn2c(C(=O)NC3CCC(C)CC3)cc3ccc(C(=N)N)cc32)cc1` (stereo not drawn) [Compound I-221, 6-Carbamimidoyl-1-(4-(ethylcarbamoyl)benzyl)-N-(4-methylcyclohexyl)-1H-indole-2-carboxamide] showed an inhibition at 1 µM of 0 to 25%.
With `N=C(N)c1ccc2c(N)c(C(=O)N3CCC(CCN)CC3)n(CCS(=O)(=O)c3ccccc3)c2c1` [Compound I-349, 3-Amino-2-(4-(2-aminoethyl)piperidine-1-carbonyl)-1-(2-(phenylsulfonyl)ethyl)-1H-indole-6-carboximidamide] the inhibition at 1 µM was 25 to 50%.
Compound `N=C(N)c1ccc2cc(C(=O)N3CCC[C@H](CF)C3)n(Cc3ccc(C(N)=O)cc3)c2c1` [Compound I-332] has an inhibition at 1 µM of 0 to 25%.
In the case of `N=C(N)c1ccc2cc(C(=O)N3CCC(CCN)CC3)n(CCCN)c2c1` [Compound I-274], the inhibition at 1 µM is reported as 25 to 50%.
Compound `N=C(N)c1ccc2cc(C(=O)NC3CCC(F)(F)CC3)n(Cc3ccc(-c4ccccc4)cc3)c2c1` [Compound I-235] has an inhibition at 1 µM of 0 to 25%.
In the case of `N=C(N)c1ccc2cc(C(=O)N3CCC(F)CC3)n(Cc3ccc(NC(=O)CCN)cc3)c2c1` [Compound I-373], the inhibition at 1 µM is reported as 0 to 25%.
Compound `N=C(N)c1ccc2cc(C(=O)N3CCCC(F)(F)C3)n(Cc3ccc(C(N)=O)cc3)c2c1` [Compound I-328] has an inhibition at 1 µM of 0 to 25%.

What follows are compounds tested against T1, Human Recombinant Matriptase 2 (assay: Matriptase 2 fluorescence based inhibition assay, Method B (50 mM TRIS pH 7.5, 150 mM NaCl, 0.01% gelatin)). Settings: 1 uM compound; Assay Used = B (Method B); read-out: Mar-2 % inhibition at 1 uM.
Type: biochemical
Procedure, shortened: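 Commercial (7 nM) or in-house (15 nM) enzyme preincubated 30 min with compound at 25° C, then 100 μM Boc-Gln-Ala-Arg-AMC added; fluorescence (Ex 360/Em 480 nm) read at 60 min. 1% DMSO final. IC50 from variable-slope sigmoidal fit of % inhibition.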
`N=C(N)c1ccc2cc(C(=O)O)n(Cc3ccc(Oc4ccccc4)c4ccccc34)c2c1` [Compound I-705] was tested, and the inhibition at 1 µM was 50 to 75%.

Same assay, conditions: 1 uM compound; Assay Used = B; read-out: Mar-2 % inhibition at 1 uM
In the case of `N=C(N)c1ccc2cc(C(=O)NCC3CCNCC3)[nH]c2c1` [Compound I-496, 6-carbamimidoyl-N-(piperidin-4-ylmethyl)-1H-indole-2-carboxamide], the inhibition at 1 µM is reported as 0 to 25%.
With `N=C(NC(=O)OCC(Cl)(Cl)Cl)c1ccc2cc(C(=O)O)n(Cc3cc(Oc4ncccn4)cc4ccccc34)c2c1` [Compound I-552] the inhibition at 1 µM was 0 to 25%.
`NC(=O)c1ccc2cc(-c3nnc([C@H]4CC[C@H](N)CC4)s3)n(Cc3cccc4ccccc34)c2c1` [Compound I-527, 2-(5-((1r,4r)-4-aminocyclohexyl)-1,3,4-thiadiazol-2-yl)-1-(naphthalen-1-ylmethyl)-1H-indole-6-carboxamide] was tested, and the inhibition at 1 µM was 0 to 25%.
For `N=C(N)c1ccc2cc(C(=O)O)n(Cc3cc(S(=O)(=O)Nc4ccccc4)cc4ccccc34)c2c1` [Compound I-585], the inhibition at 1 µM was 50 to 75%.

Same assay, conditions: compound at 1 uM; Assay Used: B; read-out: Mar-2 % inhibition at 1 uM
`N/C(=N\O)c1ccc2cc(C(=O)NC3CCNCC3)n(Cc3cccc4ccccc34)c2c1` [Compound I-809] showed an inhibition at 1 µM of 25 to 50%.
